Counter-ions that a name gives are not always drawn.
What follows are compounds tested against T1, histamine H3 receptor (Homo sapiens, UniProt Q9Y5N1) (assay: Histamine H3 functional antagonist assay ([35S]GTPγS SPA, membranes of CHO K1 cells expressing human H3)). Settings: functional antagonism of histamine (0.3 μM) stimulated [35S]GTPγS binding, membranes of CHO K1 cells with human histamine H3.
T1 construct: expressed in transfected cells; host or cells: CHO K1 cells carrying pSwitch, transfected with pGeneH3 and induced with mifepristone; clone 3H3; membranes
T1 sequence (Q9Y5N1 whole entry): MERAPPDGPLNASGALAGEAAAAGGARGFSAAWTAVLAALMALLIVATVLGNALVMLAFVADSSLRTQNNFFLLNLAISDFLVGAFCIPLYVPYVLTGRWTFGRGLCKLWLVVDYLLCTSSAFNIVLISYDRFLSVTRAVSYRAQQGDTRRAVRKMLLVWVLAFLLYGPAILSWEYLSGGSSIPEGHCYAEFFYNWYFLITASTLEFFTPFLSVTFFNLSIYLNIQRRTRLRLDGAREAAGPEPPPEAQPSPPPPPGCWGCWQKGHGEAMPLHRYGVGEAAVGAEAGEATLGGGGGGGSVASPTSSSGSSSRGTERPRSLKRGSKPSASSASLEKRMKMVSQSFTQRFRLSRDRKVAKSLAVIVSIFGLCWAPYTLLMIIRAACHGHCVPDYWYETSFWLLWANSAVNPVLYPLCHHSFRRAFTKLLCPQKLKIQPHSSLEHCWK
Format: biochemical
Experimental: A membrane preparation containing histamine H3 receptors may be prepared in accordance with the following procedures:
Ligated DNA was transformed into competent DH5α E. coli host bacterial cells and plated onto Luria Broth (LB) agar containing Zeocin™ (an antibiotic which allows the selection of cells expressing the sh ble gene which is present on pGene and pSwitch) at 50 μg ml^−1. Colonies containing the re-ligated plasmid were identified by restriction analysis. DNA for transfection into mammalian cells was prepared from 250 ml cultures of the host bacterium containing the pGeneH3 plasmid and isolated using a DNA preparation kit (Qiagen Midi-Prep) as per manufacturers guidelines (Qiagen).
CHO K1 cells previously transfected with the pSwitch regulatory plasmid (InVitrogen) were seeded at 2×10e6 cells per T75 flask in Complete Medium, containing Hams F12 (GIBCOBRL, Life Technologies) medium supplemented with 10% v/v dialysed foetal bovine serum, L-glutamine, and hygromycin (100 μg ml^−1), 24 hours prior to use. Plasmid DNA was transfected into the cells using Lipofectamine plus according to the manufacturers guidelines (InVitrogen). 48 hours post transfection cells were placed into complete medium supplemented with 500 μg ml^−1 Zeocin™.
10-14 days post selection 10 nM Mifepristone (InVitrogen), was added to the culture medium to induce the expression of the receptor. […] Approximately 1×10e7 cells were examined for receptor expression by staining with a rabbit polyclonal antibody, 4a, raised against the N-terminal domain of the histamine H3 receptor, incubated on ice for 60 minutes, followed by two washes in sorting medium. […] Following two further washes with Sorting Medium, cells were filtered through a 50 μm Filcon™ (BD Biosciences) and then analysed on a FACS Vantage SE Flow Cytometer fitted with an Automatic Cell Deposition Unit. […] Positively stained cells were sorted as single cells into 96-well plates, containing Complete Medium containing 500 μg ml^−1 Zeocin™ and allowed to expand before reanalysis for receptor expression via antibody and ligand binding studies.
All steps of the protocol are carried out at 4° C. and with pre-cooled reagents. The cell pellet is resuspended in 10 volumes of buffer A2 containing 50 mM N-2-hydroxyethylpiperazine-N′-2-ethanesulfonic acid (HEPES)(pH 7.40) supplemented with 10e−4M leupeptin (acetyl-leucyl-leucyl-arginal; Sigma L2884), 25 μg/ml bacitracin (Sigma B0125), 1 mM ethylenediamine tetra-acetic acid (EDTA), 1 mM phenylmethylsulfonyl fluoride (PMSF) and 2×10e−6M pepstain A (Sigma). The cells are then homogenised by 2×15 second bursts in a 1 litre glass Waring blender, followed by centrifugation at 500 g for 20 minutes. The supernatant is then spun at 48,000 g.for 30 minutes. The pellet is resuspended in 4 volumes of buffer A2 by vortexing for 5 seconds, followed by homogenisation in a Dounce homogeniser (10-15 strokes). At this point the preparation is aliquoted into polypropylene tubes and stored at −70° C. […]
The plate is then incubated on a shaker at room temperature for 30 minutes followed by centrifugation for 5 minutes at 1500 rpm. The plate is read between 3 and 6 hours after completion of centrifuge run in a Wallac Microbeta counter on a 1 minute normalised tritium count protocol. Data is analysed using a 4-parameter logistic equation. Basal activity used as minimum i.e. histamine not added to well.

Row | Kb [nM] | Structure (SMILES)
1 | < 3.16 | N#Cc1ccc(N2CCC(C(=O)N3CCCN(C4CCC4)CC3)CC2)cc1C(F)(F)F [Example E68, 1-Cyclobutyl-4-[1-(4-cyano-3-trifluoromethylphenyl)-piperidine4-carbonyl]-[1,4]-diazepane]
2 | < 3.16 | CC(C)N1CCCN(C(=O)C2CCN(c3ccc(OC(F)F)cc3)CC2)CC1 [Example E59, 1-Isopropyl-4-[1-(4-difluoromethoxyphenyl)-piperidine-4-carbonyl]-[1,4]-diazepane]
3 | < 3.16 | CC(C)N1CCCN(C(=O)C2CCN(c3ccc(C#N)cc3Cl)CC2)CC1 [Example E64, 1-Isopropyl-4-[1-(4-cyano-2-chlorophenyl)-piperidine-4-carbonyl]-[1,4]-diazepane]
4 | < 1 | N#Cc1ccc(N2CCC(C(=O)N3CCCN(C4CCC4)CC3)CC2)cc1 [Example E36, 1-Cyclobutyl-4-[1-(4-cyanophenyl)-piperidine4-carbonyl]-[1,4]-diazepane]
5 | < 3.16 | O=C(C1CCN(c2cccc(C(F)(F)F)n2)CC1)N1CCN(C2CCC2)CC1 [Example E15, 1-Cyclobutyl-4-[1-(6-trifluoromethylpyridin-2-yl)-piperidine-4-carbonyl]-piperazine]
6 | < 3.16 | N#Cc1ccc(N2CCC(C(=O)N3CCN(C4CCC4)CC3)CC2)nc1 [Example E14, 1-Cyclobutyl-4-[1-(5-cyanopyridin-2-yl)-piperidine-4-carbonyl]-piperazine]
7 | < 3.16 | N#Cc1ccc(N2CCC(C(=O)N3CCCN(C4CCC4)CC3)CC2)c(Cl)c1 [Example E65, 1-Cyclobutyl-4-[1-(4-cyano-2-chlorophenyl)-piperidine-4-carbonyl]-[1,4]-diazepane]
8 | < 3.16 | CC(C)N1CCCN(C(=O)C2CCN(c3ccc(C#N)cc3F)CC2)CC1 [Example E43, 1-Isopropyl-4-[1-(4-cyano-2-fluoro-phenyl)-piperidine-4-carbonyl]-[1,4]-diazepane]
9 | < 3.16 | N#Cc1ccc(N2CCC(C(=O)N3CCCN(C4CCC4)CC3)CC2)cn1 [Example E179, 1-Cyclobutyl-4-[1-(6-cyano-pyridin-3-yl)-piperidine-4-carbonyl]-[1,4]-diazepane]
10 | < 3.16 | O=C(C1CCN(c2ccc(C(F)(F)F)cn2)CC1)N1CCN(C2CCC2)CC1 [Example E16, 1-Cyclobutyl-4-[1-(5-trifluoromethylpyridin-2-yl)-piperidine-4-carbonyl]-piperazine]
11 | < 3.16 | O=C(C1CCN(c2ccc(C(F)(F)F)nc2)CC1)N1CCN(C2CCC2)CC1 [Example E97, 1-Cyclobutyl-4-[1-(6-trifluoromethylpyridin-3-yl)-piperidine-4-carbonyl]piperazine]
12 | < 3.16 | CC(=O)c1ccc(N2CCC(C(=O)N3CCCN(C4CCC4)CC3)CC2)cc1 [Example E170, 1-Cyclobutyl-4-[1-(4-acetylphenyl)-piperidine-4-carbonyl]-[1,4]-diazepane]
13 | < 3.16 | CC[C@H](C)N1CCN(C(=O)C2CCN(c3ccc(C#N)cc3)CC2)CC1 [Example E104]
14 | < 3.16 | N#Cc1ccc(N2CCC(C(=O)N3CCN(C4CCC4)CC3)CC2)cc1 [Example E9, 1-Cyclobutyl-4-[1-(4-cyanophenyl)-piperidine-4-carbonyl]-piperazine]
15 | < 3.16 | CC(C)N1CCCN(C(=O)C2CCN(c3ccc(C#N)c(Cl)c3)CC2)CC1 [Example E40, 1-Isopropyl-4-[1-(4-cyano-3-chlorophenyl)-piperidine-4-carbonyl]-[1,4]-diazepane]

Continued, compound first:

Row | Structure (SMILES) | Kb [nM]
16 | CC(C)N1CCCN(C(=O)C2CCN(c3ccc(Oc4ccccc4)cc3)CC2)CC1 [Example E61, 1-Isopropyl-4-[1-(4-phenoxyphenyl)-piperidine-4-carbonyl]-[1,4]-diazepane] | < 3.16
17 | CC(C)N1CCN(C(=O)C2CCN(c3ccc(C#N)nc3)CC2)C[C@@H]1C [Example E78, (S)-1-Isopropyl-4-[1-(6-cyanopyridin-3-yl)-piperidine-4-carbonyl]-2-methyl piperazine] | < 3.16
18 | CC(C)N1CCN(C(=O)C2CCN(c3ccc(C(=O)N4CCOCC4)cc3)CC2)CC1 [Example E30, 1-Isopropyl-4-{1-[4-(morpholino-carbonyl)-phenyl]-piperidine-4-carbonyl}-piperazine hydrochloride] | < 3.16
19 | CC(C)N1CCCN(C(=O)C2CCN(c3cnc(C(F)(F)F)nc3)CC2)CC1 [Example E198, 1-Isopropyl-4-[1-(2-trifluoromethylpyrimidin-5-yl)-piperidine-4-carbonyl]-[1,4]-diazepane] | < 3.16
20 | CC(C)N1CCCN(C(=O)C2CCN(c3ccc(C#N)c(F)c3F)CC2)CC1 [Example E63, 1-Isopropyl-4-[1-(4-cyano-2,3-difluorophenyl)-piperidine-4-carbonyl]-[1,4]-diazepane] | < 3.16
21 | CC(C)N1CCN(C(=O)C2CCN(c3ccc(C#N)cn3)CC2)CC1 [Example E1, 1-Isopropyl-4-[1-(5-cyano-pyridin-2-yl)-piperidine4-carbonyl]-piperazine hydrochloride] | < 3.16
22 | CC(C)N1CCCN(C(=O)C2CCN(c3ccc(OC(F)(F)F)cc3)CC2)CC1 [Example E56, 1-Isopropyl-4-[1-(4-trifluoromethoxyphenyl)-piperidine4-carbonyl]-[1,4]-diazepane] | < 3.16
23 | CC(C)N1CCCN(C(=O)C2CCN(c3ccc(C#N)c(C(F)(F)F)c3)CC2)CC1 [Example E44, 1-Isopropyl4-[1-(4-cyano-3-trifluoromethyl-phenyl)-piperidine-4-carbonyl]-[1,4]-diazepane] | < 3.16
24 | CC(C)N1CCN(C(=O)C2CCN(c3ccc(-c4nnc(-c5ccccc5)o4)cc3)CC2)CC1 [Example E90, 1-Isopropyl-4-{1-[4-(5-phenyl-1,3,4-oxadiazol-2-yl)phenyl]-piperidine-4-carbonyl} piperazine] | < 3.16
25 | CC(C)N1CCCN(C(=O)C2CCN(c3ccc(C(F)(F)F)nn3)CC2)CC1 [Example E138, 1-Isopropyl-4-[1-(6-trifluoromethylpyridazin-3-yl)-piperidine-4-carbonyl]-[1,4]-diazepane] | < 3.16
26 | CC(C)N1CCCN(C(=O)C2CCN(c3ccc(C(F)(F)F)nc3)CC2)CC1 [Example E135, 1-Isopropyl-4-[1-(6-trifluoromethylpyridin-3-yl)-pipenidine-4-carbonyl]-[1,4]-diazepane, hydrochloride] | < 0.316
27 | O=C(C1CCN(c2ncc(C(F)(F)F)cc2Cl)CC1)N1CCN(C2CCC2)CC1 [Example E17, 1-Cyclobutyl-4-[1-(3-chloro-5-trifluoromethylpyridin-2-yl)-piperidine-4-carbonyl]-piperazine] | < 3.16
28 | CC(C)N1CCN(C(=O)C2CCN(c3ccc4ncccc4c3)CC2)CC1 [Example E91, 1-Isopropyl-4-[1-(quinolin-6-yl)-piperidine4-carbonyl]piperazine] | < 3.16
29 | CC(C)N1CCN(C(=O)C2CCN(c3ncc(-c4ccc(S(C)(=O)=O)cc4)cn3)CC2)CC1 [Example E25, 1-Isopropyl-4-{1-[5-(4-methylsulfonylphenyl)-pyrimidin-2-yl]-piperidine-4-carbonyl}-piperazine] | < 3.16
30 | CCOC(=O)c1ccc(N2CCC(C(=O)N3CCN(C(C)C)CC3)CC2)cc1 [Example E8, 1-Isopropyl-4-[1-(4ethoxycarbonylphenyl)-piperidine-4-carbonyl]-piperazine] | < 3.16
